Measured values: the supplement of paper PMC8617591

What was measured:
[1] = tested on: Mycobacterium tuberculosis Erdman (autoluminescent); experiment: AUC25, normalised area under dose response up to IC25 (three-drug combination) (fraction (0-1)); higher = more potent at low dose
Method: (§1)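 DiaMOND equipotent three-drug combination dose responses (10 doses, 1.5- or 2-fold spacing, centred on IC90) against autoluminescent M. tuberculosis Erdman in 8 in vitro models. Read-out is OD600, or luminescence for the intracellular and dormancy models, normalised to untreated wells. Hill-fit Einf, AUC25 and GRinf are potency metrics; FIC50 and FIC90 are total Loewe fractional inhibitory concentrations as log2 (negative = synergy).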

[2] = tested on: Mycobacterium tuberculosis Erdman (autoluminescent); experiment: GRinf, maximum normalised growth rate inhibition (three-drug combination) (unitless (-1 to 1)); higher = less effect (negative = killing)
Method: as §1

[3] = tested on: Mycobacterium tuberculosis Erdman (autoluminescent); experiment: total FIC50 (Loewe) at 50% inhibition, three-drug combination (log2); higher = more antagonistic
Method: as §1

[4] = tested on: Mycobacterium tuberculosis Erdman (autoluminescent); experiment: total FIC90 (Loewe) at 90% inhibition, three-drug combination (log2); higher = more antagonistic
Method: as §1

[5] = tested on: Mycobacterium tuberculosis Erdman (autoluminescent); experiment: Einf, fitted maximum growth inhibition of three-drug combination (fraction); higher = stronger maximal inhibition
Method: as §1

COc1nc2ccc(Br)cc2cc1[C@@H](c1ccccc1)[C@@](O)(CCN(C)C)c1cccc2ccccc12 [bedaquiline] + NNC(=O)c1ccncc1 [isoniazid] + COc1c(N2C[C@@H]3CCCN[C@@H]3C2)c(F)cc2c(=O)c(C(=O)O)cn(C3CC3)c12 [moxifloxacin]
Details | AUC25, [1] | Einf, [5] | GRinf, [2] | total FIC50, [3] | total FIC90, [4]
in vitro model: acidic pH 5.7, time point: constant (~7 days, model-specific) | 0.098 | 0.7 | -0.325 | 0.527 | –
in vitro model: acidic pH 5.7, time point: terminal (~4-5 doublings, model-specific) | 0.0943 | 0.958 | -0.313 | 0.604 | 0.776
in vitro model: intracellular J774, time point: constant = terminal | – | 0.972 | -0.784 | – | 1.2

Details | AUC25, [1] | Einf, [5] | GRinf, [2] | total FIC50, [3] | total FIC90, [4]
in vitro model: butyrate, time point: constant (~7 days, model-specific) | 0.0762 | 0.94 | -0.0717 | 0.776 | 0.906
in vitro model: butyrate, time point: terminal (~4-5 doublings, model-specific) | 0.0478 | 0.973 | -0.0805 | 0.672 | 0.575
in vitro model: cholesterol 0.05 mM, time point: constant (~7 days, model-specific) | 0.0995 | 0.742 | -0.202 | 0.612 | –
in vitro model: cholesterol 0.05 mM, time point: terminal (~4-5 doublings, model-specific) | 0.0886 | 0.923 | -0.178 | 0.549 | -0.479
in vitro model: cholesterol-high 0.2 mM, time point: constant (~7 days, model-specific) | 0.0861 | 0.952 | -0.436 | 0.394 | 0.57
in vitro model: cholesterol-high 0.2 mM, time point: terminal (~4-5 doublings, model-specific) | 0.0461 | 0.991 | -0.601 | 0.581 | 0.234
in vitro model: dormancy (butyrate + nitrate, low O2), time point: constant (~7 days, model-specific) | 0.0686 | 0.938 | 0.161 | 0.895 | 0.336
in vitro model: dormancy (butyrate + nitrate, low O2), time point: terminal (~4-5 doublings, model-specific) | 0.0705 | 0.997 | -0.252 | 0.646 | 0.782
in vitro model: standard 7H9 glycerol, time point: constant = terminal | 0.0816 | 0.987 | -0.154 | 0.375 | 0.614
in vitro model: valerate, time point: constant (~7 days, model-specific) | 0.1 | 0.925 | -0.134 | 0.901 | –
in vitro model: valerate, time point: terminal (~4-5 doublings, model-specific) | 0.067 | 0.949 | -0.0225 | 0.672 | 1.33

CC(=O)NC[C@H]1CN(c2ccc(N3CCOCC3)c(F)c2)C(=O)O1 [linezolid] + COc1c(N2C[C@@H]3CCCN[C@@H]3C2)c(F)cc2c(=O)c(C(=O)O)cn(C3CC3)c12 [moxifloxacin] + CO[C@H]1/C=C/O[C@@]2(C)Oc3c(C)c(O)c4c(O)c(c(/C=N/N5CCN(C6CCCC6)CC5)c(O)c4c3C2=O)NC(=O)/C(C)=C\C=C\[C@H](C)[C@H](O)[C@@H](C)[C@@H](O)[C@@H](C)[C@H](OC(C)=O)[C@@H]1C [rifapentine]
Details | AUC25, [1] | Einf, [5] | GRinf, [2] | total FIC50, [3] | total FIC90, [4]
in vitro model: acidic pH 5.7, time point: constant (~7 days, model-specific) | 0.0572 | 0.8 | 0.0276 | 0.827 | –
in vitro model: acidic pH 5.7, time point: terminal (~4-5 doublings, model-specific) | 0.0558 | 0.976 | -0.0724 | 0.952 | 0.684
in vitro model: intracellular J774, time point: constant = terminal | – | 0.911 | -0.0811 | – | 0.0429

Details | AUC25, [1] | Einf, [5] | GRinf, [2] | total FIC50, [3] | total FIC90, [4]
in vitro model: butyrate, time point: constant (~7 days, model-specific) | 0.0841 | 0.876 | 0.149 | 0.365 | 0.691
in vitro model: butyrate, time point: terminal (~4-5 doublings, model-specific) | 0.0527 | 0.929 | 0.0958 | 0.352 | 0.196
in vitro model: cholesterol 0.05 mM, time point: constant (~7 days, model-specific) | 0.157 | 0.694 | -0.35 | 0.586 | –
in vitro model: cholesterol 0.05 mM, time point: terminal (~4-5 doublings, model-specific) | 0.129 | 0.909 | -0.32 | 0.581 | -0.237
in vitro model: cholesterol-high 0.2 mM, time point: constant (~7 days, model-specific) | 0.11 | 0.913 | -0.639 | 0.553 | 0.386
in vitro model: cholesterol-high 0.2 mM, time point: terminal (~4-5 doublings, model-specific) | 0.113 | 1 | -0.938 | 0.377 | 0.836
in vitro model: dormancy (butyrate + nitrate, low O2), time point: constant (~7 days, model-specific) | 0.0602 | 0.862 | 0.223 | 1.04 | 0.925
in vitro model: dormancy (butyrate + nitrate, low O2), time point: terminal (~4-5 doublings, model-specific) | 0.0346 | 0.979 | -0.11 | 1.31 | 1.02
in vitro model: standard 7H9 glycerol, time point: constant = terminal | 0.0607 | 0.902 | 0.0317 | 0.709 | 0.569
in vitro model: valerate, time point: constant (~7 days, model-specific) | 0.109 | 0.834 | 0.129 | 0.0907 | –
in vitro model: valerate, time point: terminal (~4-5 doublings, model-specific) | 0.0452 | 0.914 | 0.0886 | 0.472 | 0.387

CC(C)/N=c1\cc2n(-c3ccc(Cl)cc3)c3ccccc3nc-2cc1Nc1ccc(Cl)cc1 [clofazimine] + CC(=O)NC[C@H]1CN(c2ccc(N3CCOCC3)c(F)c2)C(=O)O1 [linezolid] + COc1c(N2C[C@@H]3CCCN[C@@H]3C2)c(F)cc2c(=O)c(C(=O)O)cn(C3CC3)c12 [moxifloxacin]
Details | AUC25, [1] | Einf, [5] | GRinf, [2] | total FIC50, [3] | total FIC90, [4]
in vitro model: acidic pH 5.7, time point: constant (~7 days, model-specific) | 0.0788 | 0.706 | -0.3 | -0.736 | –
in vitro model: acidic pH 5.7, time point: terminal (~4-5 doublings, model-specific) | 0.0696 | 0.915 | -0.183 | 0.837 | -0.131
in vitro model: intracellular J774, time point: constant = terminal | – | 0.859 | -0.214 | – | 0.527

Details | AUC25, [1] | Einf, [5] | GRinf, [2] | total FIC50, [3] | total FIC90, [4]
in vitro model: butyrate, time point: constant (~7 days, model-specific) | 0.113 | 0.956 | -0.279 | 0.741 | 1.3
in vitro model: butyrate, time point: terminal (~4-5 doublings, model-specific) | 0.0854 | 0.978 | -0.148 | 0.802 | 1.05
in vitro model: cholesterol 0.05 mM, time point: constant (~7 days, model-specific) | 0.141 | 0.693 | -0.0883 | 0.0515 | –
in vitro model: cholesterol 0.05 mM, time point: terminal (~4-5 doublings, model-specific) | 0.148 | 0.925 | -0.21 | 0.132 | 1.39
in vitro model: cholesterol-high 0.2 mM, time point: constant (~7 days, model-specific) | 0.139 | 0.935 | -1 | 0.411 | 0.869
in vitro model: cholesterol-high 0.2 mM, time point: terminal (~4-5 doublings, model-specific) | 0.127 | 1 | -1 | -0.0894 | 0.513
in vitro model: dormancy (butyrate + nitrate, low O2), time point: constant (~7 days, model-specific) | 0.0737 | 0.903 | 0.201 | 1.33 | 0.822
in vitro model: dormancy (butyrate + nitrate, low O2), time point: terminal (~4-5 doublings, model-specific) | 0.0474 | 0.983 | -0.18 | 1.18 | 0.998
in vitro model: standard 7H9 glycerol, time point: constant = terminal | 0.105 | 0.971 | -0.383 | 0.199 | 1.19
in vitro model: valerate, time point: constant (~7 days, model-specific) | 0.124 | 0.868 | -0.197 | 0.648 | –
in vitro model: valerate, time point: terminal (~4-5 doublings, model-specific) | 0.0951 | 0.919 | -0.0235 | 0.275 | 1.06
